Measured values reported in PMC8400394, “Adsorption of Recombinant Human β-Defensin 2 and Two Mutants on Mesoporous Silica Nanoparticles and Its Effect against Clavibacter michiganensis subsp. michiganensis” (Nanomaterials, 2021).

Tests used:
Format in all cases: cell-based, Clavibacter michiganensis subsp. michiganensis
[1] = test system: Cmm; assay: Antimicrobial activity of AMPs by the plaque diffusion method; conditions: plaque diffusion on MHB agar with Cmm; 5, 10 and 15 μL of 50 μM; CH3COOH 10 mM pH 2.4 and Tris 50 mM pH 8.4; 24 h, 28 °C; triplicate
Procedure: (§1) Cmm was cultivated in Mueller-Hinton broth (MHB) at […] for 16 h at 180 rpm. Employing 0.5 mL of the previous culture, 50 mL of fresh MHB were inoculated. The culture was maintained under the conditions mentioned above until the OD600 reached 0.2–0.3. 9.5 mL of MHB agar prewarmed to 37 °C were added to 0.5 mL of the culture. It was homogenized and then poured onto a Petri dish containing MHB agar to form a uniform layer of 2 mm. Once the surface was dry, different volumes (5, 10 and 15 μL) of the defensins under study (50 μM) were added to the surface. The plates were incubated for 24 h at 28 °C, then the formed inhibition halos were measured. CH3COOH (acid acetic)10 mM pH 2.4 and Tris 50 mM pH 8.4 were used both as negative controls. The IC50 was determined based on that reported by Tay and Liu. This measurement was defined as the minimum concentration of AMP that is required to inhibit 50% of the growth of Cmm.

[2] = test system: Cmm; assay: Determination of IC50 of the recombinant AMPs; conditions: Cmm in MHB, minimum concentration of AMP that inhibits 50% of the growth
Procedure: as §1

[3] = test system: Cmm; assay: Antimicrobial activity of MSN/AMPs complexes in solid medium; conditions: plaque diffusion on MHB with Cmm; 5, 10, 15 µL; 24 h, 28 °C; MSN 5 mg/mL, AMPs 0.5 mg/mL; triplicate
Procedure: The antimicrobial activity of the MSN/AMPs complexes was evaluated both in solid and liquid media. For the solid medium, the adsorption process was carried out as described in the previous section. The pellet was resuspended in PBS (1 mL). Afterwards, different volumes of the MSN/AMPs mixture were deposited onto Petri dishes with MHB medium and Cmm (see antimicrobial activity test section and IC50 determination). The plates were incubated for 24 h at 28 °C, the diameter of the inhibition halos was measured. MSN (5 mg/mL) and AMPs (0.5 mg/mL) were employed as controls. These experiments were performed by triplicates.

[4] = test system: Cmm; assay: Effect of pepsin on AMPs and MSN/AMPs complexes (growth of Cmm after protease treatment); conditions: AMPs (1 mg/mL) treated with pepsin (1 mg/mL), 5:1 peptide:enzyme; then Cmm culture 28 °C, 24 h; CFU count; duplicate
Procedure: After removing the supernatant and drying the MSN/AMP complexes, 200 µL of the pepsin (1 mg/mL) were added and incubated at 37 °C for 16 h under constant shaking. The microtubes were then centrifuged at 5000× g for 10 min at 4 °C. The resulting pellet was washed twice with deionized water and centrifuged at 5000× g for 10 min at 4 °C between each wash. MSN/AMPs complexes were resuspended in 3 mL of diluted Cmm culture and incubated at 28 °C for 24 h at 180 rpm. After the incubation period, serial dilutions were performed up to 1 × 10^6 of which 100 µL were taken and Petri dishes were poured with 30 mL MHB medium. The plates were incubated at 28 °C for 72 h and the colonies were counted, bacterial growth was expressed as CFU/mL. Controls were prepared with MSN (5 mg/mL) in PBS and AMPs (1 mg/mL) treated with protease (1 mg/mL) in a 5:1 ratio (peptide:enzyme). The experiments for this assay were performed by duplicate.

human β-defensin-2 [hβD2] was tested, and the “antimicrobial activity (inhibition halos)” value [1] was “exhibited inhibition halos”, the IC50 ([2]; AMP in CH3COOH 10 mM pH 2.4) was 3.64 ± 0.33 µg/mL and the IC50 ([2]; AMP in Tris 50 mM pH 8.4) was 3.61 ± 0.47 µg/mL. The “antimicrobial activity in solid medium (inhibition halos)” value [3] was “greater inhibition than MNS/hβD2” and the “Cmm growth inhibition after pepsin treatment, AMPs without the mesoporous matrix” value [4] was 99.98%.
